Results reported in DBAASP.
≈ marks a conversion by molar mass, not a printed value. Each block holds one compound with its values, some of them ahead of it.

Experiments:
Assay in all cases: ≥ marks a high value that may be exact or a test limit, other limits are often not marked, values filed in µg/mL are converted to µM
[1] = test system: Bacillus subtilis ATCC 6633
[2] = test system: Escherichia coli ATCC 25922
[3] = test system: Klebsiella pneumoniae ATCC 10031
[4] = test system: Micrococcus luteus ATCC 10240
[5] = test system: Pseudomonas aeruginosa ATCC 27853
[6] = test system: Salmonella enterica subsp. enterica serovar Typhimurium ATCC 14028
[7] = test system: Shigella dysenteriae ATCC 9752
[8] = test system: Staphylococcus aureus ATCC 6538P
[9] = test system: Staphylococcus epidermidis ATCC 12228
[10] = test system: Pseudomonas aeruginosa Ps4
[11] = test system: Escherichia coli K-12
[12] = test system: Candida albicans ATCC 90028
[13] = test system: Escherichia coli ATCC 8739
[14] = test system: Staphylococcus aureus ATCC 43300
[15] = test system: Staphylococcus aureus ATCC 6538
[16] = test system: Staphylococcus aureus ATCC 25923
[17] = test system: Streptococcus mutans

Compound: CC[C@H](C)[C@H](NC(=O)[C@H](C)NC(=O)[C@H](CCC(N)=O)NC(=O)[C@@H](NC(=O)[C@@H](NC(=O)[C@H](CCCN=C(N)N)NC(=O)[C@H](CCCCN)NC(=O)[C@H](Cc1ccccc1)NC(=O)CN)[C@@H](C)CC)C(C)C)C(=O)N[C@@H](CCCCN)C(=O)N[C@@H](CC(=O)O)C(=O)N[C@@H](Cc1ccccc1)C(=O)N[C@@H](CC(C)C)C(=O)N[C@@H](CCCN=C(N)N)C(=O)N[C@@H](CC(N)=O)C(=O)N[C@@H](CC(C)C)C(=O)N[C@H](C(N)=O)C(C)C [GFKRIVQAIKDFLRNLV]
- MIC [11]: ≥ 60 µM

Compound: CC[C@H](C)[C@H](NC(=O)[C@H](CCCCN)NC(=O)[C@@H](NC(=O)[C@H](CO)NC(=O)[C@H](CC(=O)O)NC(=O)[C@H](Cc1c[nH]c2ccccc12)NC(=O)[C@H](CC(C)C)NC(=O)CN)[C@@H](C)CC)C(=O)N[C@@H](C)C(=O)NCC(=O)N[C@@H](CCCCN)C(=O)N[C@@H](CCCCN)C(=O)N[C@@H](CC(C)C)C(=O)N[C@@H](Cc1ccccc1)C(=O)N[C@H](C(=O)N[C@@H](CC(N)=O)C(=O)N[C@H](C(=O)N[C@@H](CC(C)C)C(=O)N[C@@H](CC(=O)O)C(=O)N[C@@H](CCCCN)C(=O)N[C@H](C(=O)N[C@@H](CCCN=C(N)N)C(=O)N[C@H]1CSSC[C@@H](C(=O)O)NC(=O)CNC(=O)CNC(=O)[C@H](C)NC(=O)[C@H](C(C)C)NC(=O)[C@H](CCCCN)NC1=O)[C@@H](C)CC)C(C)C)C(C)C [GLWDSIKIAGKKLFVNVLDKIRCKVAGGC]
- MIC [12]: ≥ 100 µM
- MIC [13]: 12.5 µM (≈ 39.1 µg/mL)
- MIC [14]: 12.5 µM (≈ 39.1 µg/mL)
- MIC [15]: 3.1 µM (≈ 9.71 µg/mL)

Compound: CC(C)C[C@H](NC(=O)[C@H](CC(C)C)NC(=O)[C@H](CCCCN)NC(=O)[C@H](CC(C)C)NC(=O)[C@H](CC(C)C)NC(=O)[C@H](Cc1c[nH]c2ccccc12)NC(=O)[C@H](CCCCN)NC(=O)[C@H](CC(C)C)NC(=O)[C@H](CC(C)C)NC(=O)[C@H](CCCCN)NC(=O)[C@H](CCCCN)NC(=O)[C@@H](N)CC(C)C)C(=O)N[C@@H](CCCCN)C(N)=O [LKKLLKWLLKLLK]
- MIC [1]: 1.89 µM (≈ 3.1 µg/mL)
- MIC [2]: > 122 µM
- MIC [3]: ≥ 122 µM
- MIC [4]: 1.89 µM (≈ 3.1 µg/mL)
- MIC [5]: > 122 µM
- MIC [6]: > 122 µM
- MIC [7]: ≥ 122 µM
- MIC [8]: 7.63 µM (≈ 12.5 µg/mL)
- MIC [9]: 7.63 µM (≈ 12.5 µg/mL)

Compound: CC(C)C[C@H](NC(=O)[C@H](CC(C)C)NC(=O)[C@H](CCCCN)NC(=O)[C@H](CC(C)C)NC(=O)[C@H](CC(C)C)NC(=O)[C@H](Cc1c[nH]c2ccccc12)NC(=O)[C@H](CCCCN)NC(=O)[C@H](CC(C)C)NC(=O)[C@H](CC(C)C)NC(=O)[C@H](CCCCN)NC(=O)[C@H](CC(C)C)NC(=O)[C@@H](N)CC(C)C)C(=O)N[C@@H](CCCCN)C(N)=O [LLKLLKWLLKLLK]
- MIC [1]: 3.88 µM (≈ 6.3 µg/mL)
- MIC [2]: > 123 µM
- MIC [3]: ≥ 123 µM
- MIC [4]: 3.88 µM (≈ 6.3 µg/mL)
- MIC [5]: > 123 µM
- MIC [6]: > 123 µM
- MIC [7]: ≥ 123 µM
- MIC [8]: 15.4 µM (≈ 25 µg/mL)
- MIC [9]: 30.8 µM (≈ 50 µg/mL)

Compound: CSCC[C@H](N)C(=O)N[C@@H](C)C(=O)N[C@@H](CCCN=C(N)N)C(=O)N[C@@H](CC(N)=O)C(=O)N[C@@H](CCCCN)C(=O)N1CCC[C@H]1C(=O)N[C@@H](CC(C)C)C(=O)NCC(=O)N[C@@H](CCCCN)C(=O)N[C@@H](CCCCN)C(=O)N[C@@H](CC(C)C)C(=O)N[C@@H](CCCN=C(N)N)C(=O)N[C@@H](CC(C)C)C(=O)N[C@@H](C)C(=O)N[C@@H](C)C(=O)N[C@@H](C)C(=O)N[C@@H](Cc1ccccc1)C(=O)N[C@@H](CCCCN)C(=O)O [MARNKPLGKKLRLAAAFK]
- MIC [13]: ≥ 127 µM
- MIC [16]: > 127 µM

Compound: CSCC[C@H](N)C(=O)N[C@@H](CCCCN)C(=O)N[C@@H](CCCCN)C(=O)N[C@@H](CC(C)C)C(=O)N[C@@H](Cc1ccccc1)C(=O)N[C@@H](C)C(=O)N[C@@H](C)C(=O)N[C@@H](CC(C)C)C(=O)N[C@@H](C)C(=O)N[C@@H](CC(C)C)C(=O)N[C@@H](C)C(=O)N[C@@H](C)C(=O)N[C@H](C(=O)N[C@H](C(=O)N[C@@H](C)C(=O)N1CCC[C@H]1C(=O)N[C@H](C(=O)N[C@@H](Cc1c[nH]c2ccccc12)C(=O)O)C(C)C)C(C)C)C(C)C [MKKLFAALALAAVVAPVW]
- MIC [13]: ≥ 135 µM
- MIC [16]: > 135 µM

Compound: CC(C)C[C@H](NC(=O)[C@H](CCCCN)NC(=O)[C@H](CCCCN)NC(=O)[C@H](CCCN=C(N)N)NC(=O)[C@H](CCCN=C(N)N)NC(=O)[C@H](CO)NC(=O)[C@H](CCC(N)=O)NC(=O)[C@H](Cc1ccc(O)cc1)NC(=O)[C@H](Cc1ccccc1)NC(=O)[C@H](CCC(N)=O)NC(=O)[C@H](CO)NC(=O)[C@H](CCC(=O)O)NC(=O)[C@H](CCCN=C(N)N)NC(=O)[C@@H](N)CC(N)=O)C(=O)N[C@@H](CO)C(=O)N[C@@H](CO)C(=O)N[C@@H](CCC(N)=O)C(=O)N[C@H](C(=O)O)C(C)C [NRESQFYQSRRKKLSSQV]
- MIC [13]: ≥ 114 µM
- MIC [16]: > 114 µM

Second part, the compound after the results:

- MIC [1]: 4.1 µM (≈ 6.3 µg/mL)
- MIC [2]: 32.5 µM (≈ 50 µg/mL)
- MIC [3]: ≥ 32.5 µM
- MIC [4]: 2.02 µM (≈ 3.1 µg/mL)
- MIC [5]: 16.3 µM (≈ 25 µg/mL)
- MIC [6]: 130 µM (≈ 200 µg/mL)
- MIC [7]: 16.3 µM (≈ 25 µg/mL)
- MIC [8]: 8.13 µM (≈ 12.5 µg/mL)
- MIC [9]: 8.13 µM (≈ 12.5 µg/mL)
Compound: CC(C)C[C@H](NC(=O)[C@H](Cc1c[nH]c2ccccc12)NC(=O)[C@H](CCCCN)NC(=O)[C@H](Cc1ccccc1)NC(=O)[C@H](CC(C)C)NC(=O)[C@H](Cc1c[nH]c2ccccc12)NC(=O)[C@H](CCCCN)NC(=O)[C@H](CC(C)C)NC(=O)[C@@H](N)Cc1ccccc1)C(=O)N[C@@H](CCCCN)C(=O)N[C@@H](CCCCN)C(N)=O [FLKWLFKWLKK]

- MIC [1]: 1.92 µM (≈ 3.1 µg/mL)
- MIC [2]: > 124 µM
- MIC [3]: ≥ 124 µM
- MIC [4]: 1.92 µM (≈ 3.1 µg/mL)
- MIC [5]: > 124 µM
- MIC [6]: > 124 µM
- MIC [7]: ≥ 124 µM
- MIC [8]: 3.91 µM (≈ 6.3 µg/mL)
- MIC [9]: 1.92 µM (≈ 3.1 µg/mL)
Compound: CC(C)C[C@H](NC(=O)[C@H](Cc1c[nH]c2ccccc12)NC(=O)[C@H](Cc1c[nH]c2ccccc12)NC(=O)[C@H](CC(C)C)NC(=O)[C@@H](N)Cc1ccccc1)C(=O)N[C@@H](Cc1ccccc1)C(=O)N[C@@H](CCCCN)C(=O)N[C@@H](Cc1c[nH]c2ccccc12)C(=O)N[C@@H](C)C(=O)N[C@@H](Cc1c[nH]c2ccccc12)C(=O)N[C@@H](CCCCN)C(N)=O [FLWWLFKWAWK]

- MIC [10]: ≥ 159 µM
Compound: CC[C@H](C)[C@H](NC(=O)[C@H](CCCN=C(N)N)NC(=O)[C@@H](NC(=O)[C@H](CC(N)=O)NC(=O)[C@H](CCCN=C(N)N)NC(=O)[C@H](CCC(N)=O)NC(=O)[C@H](Cc1c[nH]c2ccccc12)NC(=O)[C@H](CCC(N)=O)NC(=O)[C@@H](N)Cc1ccccc1)[C@@H](C)CC)C(=O)N[C@@H](CCCN=C(N)N)C(=O)N[C@@H](CCCN=C(N)N)C(N)=O [FQWQRNIRIRR]

- MIC [10]: ≥ 146 µM
Compound: CC[C@H](C)[C@H](NC(=O)[C@H](CC(N)=O)NC(=O)[C@H](CCCN=C(N)N)NC(=O)[C@H](CCC(N)=O)NC(=O)[C@H](Cc1c[nH]c2ccccc12)NC(=O)[C@@H](N)Cc1ccccc1)C(=O)N[C@@H](CCCN=C(N)N)C(=O)N[C@@H](CCCCN)C(=O)N[C@H](C(=O)N[C@@H](CCCN=C(N)N)C(=O)N[C@@H](CCCN=C(N)N)C(=O)N[C@@H](CCCN=C(N)N)C(N)=O)C(C)C [FWQRNIRKVRRR]

- MIC [10]: ≥ 160 µM
Compound: CC[C@H](C)[C@H](NC(=O)[C@H](CC(N)=O)NC(=O)[C@H](CCCN=C(N)N)NC(=O)[C@H](CCC(N)=O)NC(=O)[C@H](Cc1c[nH]c2ccccc12)NC(=O)[C@@H](N)Cc1ccccc1)C(=O)N[C@@H](CCCN=C(N)N)C(=O)N[C@@H](CCCCN)C(=O)N[C@H](C(=O)N[C@@H](CCCN=C(N)N)C(=O)N[C@@H](CCCN=C(N)N)C(N)=O)C(C)C [FWQRNIRKVRR]

- MIC [10]: ≥ 177 µM
Compound: CC[C@H](C)[C@H](NC(=O)[C@H](CC(N)=O)NC(=O)[C@H](CCCN=C(N)N)NC(=O)[C@H](CCC(N)=O)NC(=O)[C@H](Cc1c[nH]c2ccccc12)NC(=O)[C@@H](N)Cc1ccccc1)C(=O)N[C@@H](Cc1ccc(O)cc1)C(=O)N[C@@H](CCCCN)C(=O)N[C@H](C(=O)N[C@@H](CCCN=C(N)N)C(N)=O)C(C)C [FWQRNIYKVR]

- MIC [10]: ≥ 169 µM
Compound: CC(C)[C@H](NC(=O)[C@H](CCCCN)NC(=O)[C@H](CCCN=C(N)N)NC(=O)[C@H](Cc1c[nH]c2ccccc12)NC(=O)[C@H](CC(N)=O)NC(=O)[C@H](CCCN=C(N)N)NC(=O)[C@H](CCC(N)=O)NC(=O)[C@H](Cc1c[nH]c2ccccc12)NC(=O)[C@@H](N)Cc1ccccc1)C(=O)N[C@@H](CCCN=C(N)N)C(N)=O [FWQRNWRKVR]

- MIC [17]: ≥ 81.2 µM
Compound: CC(C)C[C@H](NC(=O)[C@H](Cc1cnc[nH]1)NC(=O)[C@H](CCC(N)=O)NC(=O)[C@H](Cc1c[nH]c2ccccc12)NC(=O)[C@@H](NC(=O)[C@H](CCC(N)=O)NC(=O)[C@H](Cc1ccccc1)NC(=O)[C@H](CC(C)C)NC(=O)[C@@H](N)Cc1ccc(O)cc1)[C@@H](C)O)C(=O)N[C@@H](Cc1ccccc1)C(=O)N[C@@H](CCCN=C(N)N)C(=O)O [YLFQTWQHLFR]
